From US7968556B2, “Heteroaryl compounds, compositions thereof, and methods of treatment therewith” (Signal Pharmaceuticals, LLC, priority 2006, dated 2011)

melting point	Structure (SMILES)
293 to 296 °C	NC(=O)c1nc(-c2cccc(O)c2)nc2c1[nH]c(=O)n2-c1ccccc1-c1ccccc1 [Compound 119, 9-(Biphenyl-2-yl)-2-(3-hydroxyphenyl)-8-oxo-8,9-dihydro-7H-purine-6-carboxamide]
348 to 350 °C	COc1ccccc1-n1c(=O)[nH]c2c(C(N)=O)nc(-c3cccc(C(=O)O)c3)nc21 [Compound 62, 3-(6-Carbamoyl-9-(2-methoxyphenyl)-8-oxo-8,9-dihydro-7H-purin-2-yl)benzoic acid]
340 °C (dec.)	CC(C)c1ccccc1-n1c(=O)[nH]c2c(C(N)=O)nc(-c3ccc(-c4ncc[nH]4)cc3)nc21 [Compound 133, 2-(4-(1H-Imidazol-2-yl)phenyl)-9-(2-isopropylphenyl)-8-oxo-8,9-dihydro-7H-purine-6-carboxamide]
358 °C (dec.)	COc1ccccc1-n1c(=O)[nH]c2c(C(N)=O)nc(-c3cnc4nc[nH]c4c3)nc21 [Compound 130, 2-(1H-Imidazo[4,5-b]pyridin-6-yl)-9-(2-methoxyphenyl)-8-oxo-8,9-dihydro-7H-purine-6-carboxamide]
324 to 326 °C	COC[C@H]1CC[C@@H](n2c(=O)[nH]c3c(C(N)=O)nc(-c4cccc(O)c4)nc32)CC1 [Compound 159, 2-(3-Hydroxyphenyl)-9-(cis-4-(methoxymethyl)cyclohexyl)-8-oxo-8,9-dihydro-7H-purine-6-carboxamide]
368 °C	CC(C)c1ccccc1-n1c(=O)[nH]c2c(C(N)=O)nc(-c3ccc(-c4nc[nH]n4)cc3)nc21 [Compound 121, 2-(4-(1H-1,2,4-Triazol-3-yl)phenyl)-9-(2-isopropylphenyl)-8-oxo-8,9-dihydro-7H-purine-6-carboxamide]
345 °C (dec.)	CO[C@H]1CC[C@@H](n2c(=O)[nH]c3c(C(N)=O)nc(-c4ccc5nc[nH]c5c4)nc32)CC1 [Compound 167, 2-(1H-Benzo[d]imidazol-6-yl)-9-(cis-4-methoxycyclohexyl)-8-oxo-8,9-dihydro-7H-purine-6-carboxamide]
165 to 170 °C	COc1ccccc1-n1c(=O)[nH]c2c(C(N)=O)nc(Nc3ccc(Cn4ccnc4)cc3)nc21 [Compound 111, 2-(4-((1H-Imidazol-1-yl)methyl)phenylamino)-9-(2-methoxyphenyl)-8-oxo-8,9-dihydro-7H-purine-6-carboxamide]
165 to 167 °C	COc1ccccc1-n1c(=O)[nH]c2c(C(N)=O)nc(N[C@H]3CC[C@H](O)CC3)nc21 [Compound 108, 2-(trans-4-Hydroxycyclohexylamino)-9-(2-methoxyphenyl)-8-oxo-8,9-dihydro-7H-purine-6-carboxamide]
265 to 266 °C	COC(=O)c1cccc(-c2nc(C(N)=O)c3[nH]c(=O)n(-c4ccccc4OC)c3n2)c1 [Compound 61, Methyl 3-(6-carbamoyl-9-(2-methoxyphenyl)-8-oxo-8,9-dihydro-7H-purin-2-yl)benzoate]
280 °C	COc1ccccc1-n1c(=O)[nH]c2c(C(N)=O)nc(-c3cccc4[nH]ncc34)nc21 [Compound 128, 2-(1H-Indazol-4-yl)-9-(2-methoxyphenyl)-8-oxo-8,9-dihydro-7H-purine-6-carboxamide]
318 to 320 °C	COc1ccccc1-n1c(=O)[nH]c2c(C(N)=O)nc(-c3ccncc3)nc21 [Compound 75, 9-(2-Methoxyphenyl)-8-oxo-2-(pyridin-4-yl)-8,9-dihydro-7H-purine-6-carboxamide]
> 260 °C	COc1ccc(-n2c(=O)[nH]c3c(C(N)=O)nc(-c4cccc(O)c4)nc32)c(F)c1 [Compound 155, 9-(2-Fluoro-4-methoxyphenyl)-2-(3-hydroxyphenyl)-8-oxo-8,9-dihydro-7H-purine-6-carboxamide]
373 to 375 °C	NC(=O)c1nc(-c2cccc(O)c2)nc2c1[nH]c(=O)n2[C@H]1CC[C@H](O)CC1 [Compound 49, 9-(trans-4-Hydroxycyclohexyl)-2-(3-hydroxyphenyl)-8-oxo-8,9-dihydro-7H-purine-6-carboxamide]
270 °C	COc1ccccc1-n1c(=O)[nH]c2c(C(N)=O)nc(-c3ccc4nc(C)[nH]c4c3)nc21 [Compound 122, 9-(2-Methoxyphenyl)-2-(2-methyl-1H-benzo[d]imidazol-6-yl)-8-oxo-8,9-dihydro-7H-purine-6-carboxamide]
> 260 °C	NC(=O)c1nc(-c2cccc(O)c2)nc2c1[nH]c(=O)n2-c1ccccc1C1CCCC1 [Compound 153, 9-(2-Cyclopentylphenyl)-2-(3-hydroxyphenyl)-8-oxo-8,9-dihydro-7H-purine-6-carboxamide]
157 to 160 °C	COc1ccccc1-n1c(=O)[nH]c2c(C(N)=O)nc(NCCO)nc21 [Compound 116, 2-(2-Hydroxyethylamino)-9-(2-methoxyphenyl)-8-oxo-8,9-dihydro-7H-purine-6-carboxamide]
159 to 162 °C	COc1ccccc1-n1c(=O)[nH]c2c(C(N)=O)nc(Nc3ccccc3CO)nc21 [Compound 124, 2-(2-(Hydroxymethyl)phenylamino)-9-(2-methoxyphenyl)-8-oxo-8,9-dihydro-7H-purine-6-carboxamide]

melting point	Structure (SMILES)
220 to 222 °C	COc1ccccc1-n1c(=O)[nH]c2c(C(N)=O)nc(-c3ccc4nc(C(F)(F)F)[nH]c4c3)nc21 [Compound 117, 9-(2-Methoxyphenyl)-8-oxo-2-(2-(trifluoromethyl)-1H-benzo[d]imidazol-6-yl)-8,9-dihydro-7H-purine-6-carboxamide]
> 250 °C	NC(=O)c1nc(-c2cccc(O)c2)nc2c1[nH]c(=O)n2-c1cccc2c1CCCC2 [Compound 145, 2-(3-Hydroxyphenyl)-8-oxo-9-(5,6,7,8-tetrahydronaphthalen-1-yl)-8,9-dihydro-7H-purine-6-carboxamide]
341 to 343 °C	NC(=O)c1nc(-c2cccc(O)c2)nc2c1[nH]c(=O)n2C1CCc2ccccc21 (stereo not drawn) [Compound 141, 9-(2,3-Dihydro-1H-inden-1-yl)-2-(3-hydroxyphenyl)-8-oxo-8,9-dihydro-7H-purine-6-carboxamide]
360 °C (dec.)	CO[C@H]1CC[C@@H](n2c(=O)[nH]c3c(C(N)=O)nc(-c4cnc5nc[nH]c5c4)nc32)CC1 [Compound 168, 2-(1H-Imidazo[4,5-b]pyridin-6-yl)-9-(cis-4-methoxycyclohexyl)-8-oxo-8,9-dihydro-7H-purine-6-carboxamide]
> 350 °C	COc1ccccc1-n1c(=O)[nH]c2c(C(N)=O)nc(-c3ccc(C(N)=O)cc3)nc21 [Compound 65, 2-(4-Carbamoylphenyl)-9-(2-methoxyphenyl)-8-oxo-8,9-dihydro-7H-purine-6-carboxamide]
329 to 331 °C	NC(=O)c1nc(-c2cccc(O)c2)nc2c1[nH]c(=O)n2-c1ccccc1Oc1ccccc1 [Compound 126, 2-(3-Hydroxyphenyl)-8-oxo-9-(2-phenoxyphenyl)-8,9-dihydro-7H-purine-6-carboxamide]
368 to 370 °C	NC(=O)c1nc(-c2cccc(O)c2)nc2c1[nH]c(=O)n2CC1CCCCC1 [Compound 140, 9-(Cyclohexylmethyl)-2-(3-hydroxyphenyl)-8-oxo-8,9-dihydro-7H-purine-6-carboxamide]
> 260 °C	CC(C)Cc1ccccc1-n1c(=O)[nH]c2c(C(N)=O)nc(-c3cccc(O)c3)nc21 [Compound 161, 2-(3-Hydroxyphenyl)-9-(2-isobutylphenyl)-8-oxo-8,9-dihydro-7H-purine-6-carboxamide]
294 to 297 °C	CC(C)(C)c1ccccc1-n1c(=O)[nH]c2c(C(N)=O)nc(-c3cccc(O)c3)nc21 [Compound 125, 9-(2-tert-Butylphenyl)-2-(3-hydroxyphenyl)-8-oxo-8,9-dihydro-7H-purine-6-carboxamide]
310 °C (dec.)	CC(C)c1ccccc1-n1c(=O)[nH]c2c(C(N)=O)nc(-c3ccc4[nH]ccc4c3)nc21 [Compound 139, 2-(1H-Indol-5-yl)-9-(2-isopropylphenyl)-8-oxo-8,9-dihydro-7H-purine-6-carboxamide]
295 to 297 °C	COc1ccccc1-n1c(=O)[nH]c2c(C(N)=O)nc(N[C@H]3CC[C@@H](O)CC3)nc21 [Compound 110, 2-(cis-4-Hydroxycyclohexylamino)-9-(2-methoxyphenyl)-8-oxo-8,9-dihydro-7H-purine-6-carboxamide]
355 to 357 °C	COc1ccc(-n2c(=O)[nH]c3c(C(N)=O)nc(-c4cccc(O)c4)nc32)c(C)c1 [Compound 57, 2-(3-Hydroxyphenyl)-9-(4-methoxy-2-methylphenyl)-8-oxo-8,9-dihydro-7H-purine-6-carboxamide]
320 °C (dec.)	CC(C)c1ccccc1-n1c(=O)[nH]c2c(C(N)=O)nc(-c3cnc4nc[nH]c4c3)nc21 [Compound 135, 2-(1H-Imidazo[4,5-b]pyridin-6-yl)-9-(2-isopropylphenyl)-8-oxo-8,9-dihydro-7H-purine-6-carboxamide]
374 to 376 °C	CC(C)Cn1c(=O)[nH]c2c(C(N)=O)nc(-c3cccc(O)c3)nc21 [Compound 142, 2-(3-Hydroxyphenyl)-9-isobutyl-8-oxo-8,9-dihydro-7H-purine-6-carboxamide]
335 to 338 °C	COc1ccccc1-n1c(=O)[nH]c2c(C(N)=O)nc(-c3ccc(C#N)cc3)nc21 [Compound 59, 2-(4-Cyano-phenyl)-9-(2-methoxy-phenyl)-8-oxo-8,9-dihydro-7H-purine-6-carboxamide]
190 to 191 °C	COc1ccccc1-n1c(=O)[nH]c2c(C(N)=O)nc(Nc3cccc(O)c3)nc21 [Compound 45, 2-(3-Hydroxyphenylamino)-9-(2-methoxyphenyl)-8-oxo-8,9-dihydro-7H-purine-6-carboxamide]
306 °C	COc1ccccc1-n1c(=O)[nH]c2c(C(N)=O)nc(-c3ccc4nc[nH]c4c3)nc21 [Compound 91, 2-(1H-Benzo[d]imidazol-6-yl)-9-(2-methoxyphenyl)-8-oxo-8,9-dihydro-7H-purine-6-carboxamide]
345 to 347 °C	CO[C@H]1CC[C@@H](n2c(=O)[nH]c3c(C(N)=O)nc(-c4cccc(O)c4)nc32)CC1 [Compound 144, 9-(cis-4-Methoxycyclohexyl)-2-(3-hydroxyphenyl)-8-oxo-8,9-dihydro-7H-purine-6-carboxamide]
